Test results from patent US10175221B2, “Detection device to identify markers dissolved in a liquid by means of a measurement of resistivity variation, detection method and use of marker and detection device” (SICPA HOLDING SA, priority 2014, dated 2019).

Test: Solubility of the tested additives into diesel fuel

SMILES: CCCCN(CCO)CCO [N-butyldiethanolamine]
- Maximum evaluated concentration of marker soluble into diesel fuel (Table 1): <100 ppm
- Maximum evaluated concentration of marker soluble into diesel fuel (Table 2): <100 ppm
